Source: ChEMBL document CHEMBL5352410, “Discovery of novel selenium-containing azole derivatives as antifungal agents by exploiting the hydrophobic cleft of CYP51” (Eur J Med Chem, 2022)
Values after ≈ are worked out from the molar mass of the structure shown.

Columns and labels:
Candida albicans [1] = assay: Antibiofilm activity against Candida albicans CPCC400616 assessed as sessile minimum inhibitory concentration measured after 3 hrs by XTT assay; type: functional
Candida albicans [2] = assay: Antifungal activity against FCZ-resistant Candida albicans 632 by CLSI based broth microdilution method; type: functional
Candida albicans [3] = assay: Fungicidal activity against FCZ-resistant Candida albicans 901; type: functional
Candida albicans [4] = assay: Fungicidal activity against FCZ-resistant Candida albicans 17#; type: functional
[5] = Metabolic stability in mouse liver microsome assessed as clearance; type: ADME; conditions: liver microsomes, read-out: CLH
Candida albicans [6] = assay: Antibiofilm activity against Candida albicans CPCC400616 assessed as sessile minimum inhibitory concentration measured after 24 hrs by XTT assay; type: functional
Candida albicans [7] = assay: Antibiofilm activity against Candida albicans CPCC400616 assessed as sessile minimum inhibitory concentration measured after 6 hrs by XTT assay; type: functional
[8] = Cytotoxicity against human HL-60 cells by MTT assay; type: toxicity, cell-based
Candida albicans [9] = assay: Antifungal activity against FCZ-resistant Candida albicans 901 by CLSI based broth microdilution method; type: functional
Candida albicans [10] = assay: Antifungal activity against FCZ-resistant Candida albicans CaR by CLSI based broth microdilution method; type: functional
[11] = Metabolic stability in mouse liver microsome assessed as half life; type: ADME; conditions: liver microsomes
Candida albicans [12] = assay: Fungicidal activity against FCZ-resistant Candida albicans CaR; type: functional
Candida albicans [13] = assay: Fungicidal activity against Candida albicans sc5314; type: functional
[14] = Cytotoxicity against human MDA-MB-231 cells by MTT assay; type: toxicity, cell-based
Candida albicans [15] = assay: Antifungal activity against FCZ-resistant Candida albicans 904 by CLSI based broth microdilution method; type: functional
Candida albicans [16] = assay: Antibiofilm activity against Candida albicans SC5314 assessed as sessile minimum inhibitory concentration measured after 24 hrs by XTT assay; type: functional
Candida albicans [17] = assay: Fungicidal activity against FCZ-resistant Candida albicans 632; type: functional
Candida albicans [18] = assay: Antifungal activity against FCZ-resistant Candida albicans 17# by CLSI based broth microdilution method; type: functional
Candida albicans [19] = assay: Antibiofilm activity against Candida albicans SC5314 assessed as sessile minimum inhibitory concentration measured after 3 hrs by XTT assay; type: functional
Candida albicans [20] = assay: Fungicidal activity against Candida albicans; type: functional
Candida albicans [21] = assay: Antibiofilm activity against Candida albicans SC5314 assessed as sessile minimum inhibitory concentration measured after 6 hrs by XTT assay; type: functional
Candida albicans [22] = assay: Antibiofilm activity against Candida albicans SC5314 assessed as sessile minimum inhibitory concentration measured after 1.5 hrs by XTT assay; type: functional
Candida albicans [23] = assay: Antibiofilm activity against Candida albicans CPCC400616 assessed as sessile minimum inhibitory concentration measured after 1.5 hrs by XTT assay; type: functional
Candida albicans [24] = assay: Fungicidal activity against FCZ-resistant Candida albicans 904; type: functional
[25] = Cytotoxicity against human PC-3 cells by MTT assay; type: toxicity, cell-based
Nakaseomyces glabratus = assay: Antifungal activity against Candida glabrata by CLSI based broth microdilution method; type: functional
Aspergillus fumigatus = assay: Antifungal activity against Aspergillus fumigatus by CLSI based broth microdilution method; type: functional
Pichia kudriavzevii = assay: Antifungal activity against Pichia kudriavzevii by CLSI based broth microdilution method; type: functional
Candida parapsilosis = assay: Antifungal activity against Candida parapsilosis by CLSI based broth microdilution method; type: functional; conditions: Lodderomyces parapsilosis
Cryptococcus neoformans = assay: Antifungal activity against Cryptococcus neoformans by CLSI based broth microdilution method; type: functional
Candida albicans [26] = assay: Antifungal activity against Candida albicans by CLSI based broth microdilution method; type: functional
[Candida] zeylanoides = Antifungal activity against Candida zeylanoides by CLSI based broth microdilution method; type: functional; conditions: Dujonia zeylanoides
Candida albicans [27] = assay: Antifungal activity against Candida albicans sc5314 by CLSI based broth microdilution method; type: functional

## Clc1ccc(C(Cn2ccnc2)[Se][Se]C(Cn2ccnc2)c2ccc(Cl)cc2)cc1 (configuration not stated)
Candida albicans [1]
  MIC50: 0.5 µg/mL (≈ 0.878 µM)
  MIC80: 4 µg/mL (≈ 7.03 µM)
Candida albicans [2]
  MIC: 4 µg/mL (≈ 7.03 µM)
Candida albicans [3]
  MFC: 4 µg/mL (≈ 7.03 µM)
Candida albicans [4]
  MFC: > 64 µg/mL
[5]
  CLint scaled: 25.4 mL/min/kg
Candida albicans [6]
  MIC50: 32 µg/mL (≈ 56.2 µM)
  MIC80: 128 µg/mL (≈ 225 µM)
Candida albicans [7]
  MIC50: 2 µg/mL (≈ 3.51 µM)
  MIC80: 32 µg/mL (≈ 56.2 µM)
[8]
  IC50: 12.5 µM
Candida albicans [9]
  MIC: 1 µg/mL (≈ 1.76 µM)
Candida albicans [10]
  MIC: 2 µg/mL (≈ 3.51 µM)
[11]
  half-life: 24.4 min
Candida albicans [12]
  MFC: > 64 µg/mL
Candida albicans [13]
  MFC: 32 µg/mL (≈ 56.2 µM)
[14]
  IC50: 5.5 µM
Candida albicans [15]
  MIC: 8 µg/mL (≈ 14.1 µM)
Candida albicans [16]
  MIC50: 0.5 µg/mL (≈ 0.878 µM)
  MIC80: 16 µg/mL (≈ 28.1 µM)
Candida albicans [17]
  MFC: 8 µg/mL (≈ 14.1 µM)
Candida albicans [18]
  MIC: 8 µg/mL (≈ 14.1 µM)
Candida albicans [19]
  MIC50: 0.5 µg/mL (≈ 0.878 µM)
  MIC80: 4 µg/mL (≈ 7.03 µM)
Candida albicans [20]
  MFC: 64 µg/mL (≈ 112 µM)
Candida albicans [21]
  MIC50: 0.5 µg/mL (≈ 0.878 µM)
  MIC80: 4 µg/mL (≈ 7.03 µM)
Candida albicans [22]
  MIC50: 0.5 µg/mL (≈ 0.878 µM)
  MIC80: 4 µg/mL (≈ 7.03 µM)
Candida albicans [23]
  MIC50: 0.5 µg/mL (≈ 0.878 µM)
  MIC80: 2 µg/mL (≈ 3.51 µM)
Candida albicans [24]
  MFC: 8 µg/mL (≈ 14.1 µM)
[25]
  IC50: 2.91 µM

## Cc1ccc(C(Cn2ccnc2)[Se][Se]C(Cn2ccnc2)c2ccc(C)cc2)cc1 (configuration not stated)
Candida albicans [1]
  MIC50: 2 µg/mL (≈ 3.78 µM)
  MIC80: 8 µg/mL (≈ 15.1 µM)
Candida albicans [2]
  MIC: 4 µg/mL (≈ 7.57 µM)
Candida albicans [3]
  MFC: 8 µg/mL (≈ 15.1 µM)
Candida albicans [4]
  MFC: > 64 µg/mL
[5]
  CLint scaled: 68.9 mL/min/kg
Candida albicans [6]
  MIC50: 4 µg/mL (≈ 7.57 µM)
  MIC80: 128 µg/mL (≈ 242 µM)
Candida albicans [7]
  MIC50: 1 µg/mL (≈ 1.89 µM)
  MIC80: 32 µg/mL (≈ 60.6 µM)
[8]
  IC50: 14.7 µM
Candida albicans [9]
  MIC: 4 µg/mL (≈ 7.57 µM)
Candida albicans [10]
  MIC: 2 µg/mL (≈ 3.78 µM)
[11]
  half-life: 21.2 min
Candida albicans [12]
  MFC: > 64 µg/mL
Candida albicans [13]
  MFC: 8 µg/mL (≈ 15.1 µM)
[14]
  IC50: 5.04 µM
Candida albicans [15]
  MIC: 4 µg/mL (≈ 7.57 µM)
Candida albicans [16]
  MIC50: 2 µg/mL (≈ 3.78 µM)
  MIC80: 4 µg/mL (≈ 7.57 µM)
Candida albicans [17]
  MFC: 8 µg/mL (≈ 15.1 µM)
Candida albicans [18]
  MIC: 32 µg/mL (≈ 60.6 µM)
Candida albicans [19]
  MIC50: 2 µg/mL (≈ 3.78 µM)
  MIC80: 4 µg/mL (≈ 7.57 µM)
Candida albicans [20]
  MFC: 64 µg/mL (≈ 121 µM)
Candida albicans [21]
  MIC50: 2 µg/mL (≈ 3.78 µM)
  MIC80: 8 µg/mL (≈ 15.1 µM)
Candida albicans [22]
  MIC50: 1 µg/mL (≈ 1.89 µM)
  MIC80: 4 µg/mL (≈ 7.57 µM)
Candida albicans [23]
  MIC50: 1 µg/mL (≈ 1.89 µM)
  MIC80: 8 µg/mL (≈ 15.1 µM)
Candida albicans [24]
  MFC: 8 µg/mL (≈ 15.1 µM)
[25]
  IC50: 7.43 µM

## Fc1ccc(C(Cn2ccnc2)[Se]C(Cn2ccnc2)c2ccc(F)cc2F)c(F)c1 (configuration not stated)
Candida albicans [1]
  MIC50: 1 µg/mL (≈ 2.03 µM)
  MIC80: 8 µg/mL (≈ 16.2 µM)
Nakaseomyces glabratus
  MIC: 64 µg/mL (≈ 130 µM)
Candida albicans [2]
  MIC: 4 µg/mL (≈ 8.11 µM)
Candida albicans [3]
  MFC: 8 µg/mL (≈ 16.2 µM)
Candida albicans [4]
  MFC: > 64 µg/mL
[5]
  CLint scaled: 558 mL/min/kg
Candida albicans [6]
  MIC50: 4 µg/mL (≈ 8.11 µM)
  MIC80: 64 µg/mL (≈ 130 µM)
Candida albicans [7]
  MIC50: 2 µg/mL (≈ 4.05 µM)
  MIC80: 16 µg/mL (≈ 32.4 µM)
[8]
  IC50: 4.61 µM
Candida albicans [9]
  MIC: 4 µg/mL (≈ 8.11 µM)
Candida albicans [10]
  MIC: 2 µg/mL (≈ 4.05 µM)
Aspergillus fumigatus
  MIC: > 64 µg/mL
[11]
  half-life: 9.8 min
Pichia kudriavzevii
  MIC: 32 µg/mL (≈ 64.9 µM)
Candida albicans [12]
  MFC: > 64 µg/mL
Candida albicans [13]
  MFC: 8 µg/mL (≈ 16.2 µM)
[14]
  IC50: 8.26 µM
Candida albicans [15]
  MIC: 8 µg/mL (≈ 16.2 µM)
Candida albicans [16]
  MIC50: 1 µg/mL (≈ 2.03 µM)
  MIC80: 4 µg/mL (≈ 8.11 µM)
Candida albicans [17]
  MFC: 8 µg/mL (≈ 16.2 µM)
Candida albicans [18]
  MIC: 1 µg/mL (≈ 2.03 µM)
Candida albicans [19]
  MIC50: 1 µg/mL (≈ 2.03 µM)
  MIC80: 4 µg/mL (≈ 8.11 µM)
Candida albicans [20]
  MFC: 32 µg/mL (≈ 64.9 µM)
Candida parapsilosis
  MIC: 8 µg/mL (≈ 16.2 µM)
Candida albicans [21]
  MIC50: 4 µg/mL (≈ 8.11 µM)
  MIC80: 16 µg/mL (≈ 32.4 µM)
Cryptococcus neoformans
  MIC: 16 µg/mL (≈ 32.4 µM)
Candida albicans [22]
  MIC50: 1 µg/mL (≈ 2.03 µM)
  MIC80: 4 µg/mL (≈ 8.11 µM)
Candida albicans [26]
  MIC: 4 µg/mL (≈ 8.11 µM)
Candida albicans [23]
  MIC50: 0.25 µg/mL (≈ 0.507 µM)
  MIC80: 2 µg/mL (≈ 4.05 µM)
Candida albicans [24]
  MFC: 8 µg/mL (≈ 16.2 µM)
[Candida] zeylanoides
  MIC: 2 µg/mL (≈ 4.05 µM)
Candida albicans [27]
  MIC: 2 µg/mL (≈ 4.05 µM)
[25]
  IC50: 1.45 µM

## Fc1ccc(C(Cn2ccnc2)[Se]C(Cn2ccnc2)c2ccc(F)cc2)cc1 (configuration not stated)
Nakaseomyces glabratus
  MIC: 64 µg/mL (≈ 140 µM)
Candida albicans [2]
  MIC: 4 µg/mL (≈ 8.75 µM)
Candida albicans [3]
  MFC: 64 µg/mL (≈ 140 µM)
Candida albicans [4]
  MFC: > 64 µg/mL
Candida albicans [9]
  MIC: 16 µg/mL (≈ 35 µM)
Candida albicans [10]
  MIC: 2 µg/mL (≈ 4.37 µM)
Aspergillus fumigatus
  MIC: > 64 µg/mL
Pichia kudriavzevii
  MIC: 32 µg/mL (≈ 70 µM)
Candida albicans [12]
  MFC: > 64 µg/mL
Candida albicans [13]
  MFC: 16 µg/mL (≈ 35 µM)
Candida albicans [15]
  MIC: 32 µg/mL (≈ 70 µM)
Candida albicans [17]
  MFC: 16 µg/mL (≈ 35 µM)
Candida albicans [18]
  MIC: 4 µg/mL (≈ 8.75 µM)
Candida albicans [20]
  MFC: 64 µg/mL (≈ 140 µM)
Candida parapsilosis
  MIC: 16 µg/mL (≈ 35 µM)
Cryptococcus neoformans
  MIC: 64 µg/mL (≈ 140 µM)
Candida albicans [26]
  MIC: 4 µg/mL (≈ 8.75 µM)
Candida albicans [24]
  MFC: > 64 µg/mL
[Candida] zeylanoides
  MIC: 4 µg/mL (≈ 8.75 µM)
Candida albicans [27]
  MIC: 2 µg/mL (≈ 4.37 µM)
